Where two headings read alike, the source gives them in different places.
Tests used:
[1] = biological target: T1, EED (1-441)-His protein (Homo sapiens, UniProt O75530); experiment: EED-H3K27Me3 peptide competition binding assay by AlphaScreen
T1 construct: 20 nM EED (1-441)-His protein
Procedure: “N/A” stands for “not assessed”.
EED-H3K27Me3 peptide competition binding assay by AlphaScreen (α-screen)
2.5 μl of solutions containing 20 nM biotin-H3K27Me3 (19-33) peptide in the buffer (25 mM HEPES, pH 8, 0.02% Tween-20, 0.5% BSA) were added to the wells and then incubated with compound for 30 min. […] Then 10 μl of the detection beads mix was added to the plate and incubated in the dark at RT for 1 h. The final concentration of donor and acceptor beads was 10 μg/ml for each. […] The data were then fit to a dose response equation to get the IC50 values.

[2] = test system: KARPAS422 human B cell lymphoma cell; experiment: Cell proliferation, KARPAS422, 7 day treatment (WST-8); assay type: cell-based
Method in brief: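 Read-out was WST-8 absorbance at 450 nm after 1-4 h with reagent, taken after 7-day compound treatment (serial dilutions, 37 °C, 5% CO2) of 2 000-3 000 KARPAS422 cells per well. IC50 fitted by nonlinear regression on DMSO-normalized values.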

[3] = test system: Pfeiffer cell line; experiment: Anti-proliferative activity, Pfeiffer cell line, 7 day treatment; assay type: cell-based; settings: Homo sapiens, 168 h
Method in brief: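 Cells seeded at 2 000-3 000 per well were treated with serially diluted compounds for 7 days at 37° C, 5% CO2. Growth was measured by WST-8 assay read at 450 nm after 1-4 h reagent incubation. Readings were normalized to DMSO-treated cells and IC50 values derived by nonlinear regression.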

[4] = EED Alpha screen binding assay, read-out: Alpha screen
[5] = anti-proliferative IC50, Karpas 422 cell line, 7 day treatment, read-out: Karpas Cell line
[6] = Homo sapiens, KARPAS-422, 168 h, anti-proliferative IC50, Karpas 422 cell line, 7 day treatment, read-out: Karpas Cell line
[7] = anti-proliferative IC50, Pfeiffer cell line, 7 day treatment, read-out: Pfeiffer Cell line
[8] = Homo sapiens, KARPAS-422, 168 h, read-out: Karpas Cell line (nM)
[9] = Pfeiffer, read-out: Pfeiffer Cell line (nM)

T1 sequence (O75530 whole entry): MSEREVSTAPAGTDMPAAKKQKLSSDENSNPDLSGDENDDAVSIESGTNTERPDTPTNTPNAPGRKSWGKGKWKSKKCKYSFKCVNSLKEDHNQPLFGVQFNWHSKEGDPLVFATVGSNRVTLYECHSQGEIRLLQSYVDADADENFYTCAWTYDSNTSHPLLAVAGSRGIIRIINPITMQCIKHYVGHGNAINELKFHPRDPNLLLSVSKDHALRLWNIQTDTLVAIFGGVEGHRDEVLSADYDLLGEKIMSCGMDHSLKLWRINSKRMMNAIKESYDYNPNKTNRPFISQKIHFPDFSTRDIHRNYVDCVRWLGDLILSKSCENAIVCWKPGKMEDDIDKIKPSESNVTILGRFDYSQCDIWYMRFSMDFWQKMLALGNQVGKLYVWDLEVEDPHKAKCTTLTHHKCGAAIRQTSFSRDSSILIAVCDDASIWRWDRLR

| Compound | IC50 [1, 4] | IC50 [2, 6] | IC50 [2, 8] | also measured |
| --- | --- | --- | --- | --- |
| 4-(2,2-difluoroethyl)-7-fluoro-12-(((5-fluoro-2,3- dihydrobenzofuran-4-yl)methyl)amino)-4,5-dihydro- 3H-2,4,11,12a-tetraazabenzo[4,5]cycloocta[1,2,3- cd]inden-3-one [compound 80] | 1.61 nM |  |  | IC50 [2, 5]: 2.42 nM |
| 4-(2,2-difluoropropyl)-7-fluoro-12-(((5-fluoro-2,3- dihydrobenzofuran-4-yl)methyl)amino)-4,5-dihydro- 3H-2,4,11,12a-tetraazabenzo[4,5]cycloocta[1,2,3- cd]inden-3-one [compound 76] | 0.97 nM |  |  | IC50 [2, 5]: 14.5 nM |
| 7-fluoro-12-(((5-fluoro-2,3-dihydrobenzofuran-4- yl)methyl)amino)-4-(1-methylpiperidin-4-yl)-4,5- dihydro-3H-2,4,11,12a- tetraazabenzo[4,5]cycloocta[1,2,3-cd]inden-3-one [compound 75] | 1.72 nM |  |  | IC50 [2, 5]: 11.1 nM |
| 7-fluoro-12-(((5-fluoro-2,3-dihydrobenzofuran-4- yl)methyl)amino)-4-(2-fluoro-2-methylpropyl)-4,5- dihydro-3H-2,4,11,12a- tetraazabenzo[4,5]cycloocta[1,2,3-cd]inden-3-one [compound 78] | 3.23 nM |  |  | IC50 [2, 5]: 34.5 nM |
| 7-fluoro-12-(((5-fluoro-2,3-dihydrobenzofuran-4- yl)methyl)amino)-4-(2-fluoroethyl)-4,5-dihydro-3H- 2,4,11,12a-tetraazabenzo[4,5]cycloocta[1,2,3- cd]inden-3-one [compound 79] | 1.61 nM |  |  | IC50 [2, 5]: 15.3 nM |
| CC1CC(N2Cc3cc(C(F)(F)F)ccc3-c3cnc(NCc4c(F)ccc5c4CCO5)n4cnc(c34)C2=O)CC(C)O1 (centres unmarked) [compound 93, 4-(2,6-dimethyltetrahydro-2H-pyran-4-yl)-12-(((5-fluoro-2,3-dihydrobenzofuran-4-yl)methyl)amino)-7-(trifluoromethyl)-4,5-dihydro-3H-2,4,11,12a-tetraazabenzo [4,5]cycloocta[1,2,3-cd]inden-3-one] |  | 3.71 nM |  | IC50 [3, 7]: 0.55 nM |
| O=S1(=O)Cc2ncccc2-c2cnc(NCc3c(F)ccc4c3CCO4)n3cnc1c23 [compound 94, 11-(((5-fluoro-2,3-dihydrobenzofuran-4-yl)methyl)amino)-4H-3-thia-2,5,10,11a-tetraazadibenzo[cd,f]azulene 3,3-dioxide] |  | 13.9 nM |  | IC50 [3, 7]: 0.2 nM |
| O=S1(=O)CCc2cc(F)ccc2-c2cnc(NCc3c(F)ccc4c3CCO4)n3cnc1c23 [compound 96, 7-fluoro-12-(((5-fluoro-2,3-dihydrobenzofuran-4-yl)methyl)amino)-4,5-dihydro-3-thia-2,11,12a-triazabenzo[4,5]cycloocta[1,2,3-cd]indene 3,3-dioxide] |  | 21.2 nM |  | IC50 [3, 7]: 0.056 nM |
| Cc1ccc2c(n1)CCS(=O)(=O)c1ncn3c(NCc4c(F)ccc5c4CCO5)ncc-2c13 [compound 97, 12-(((5-fluoro-2,3-dihydrobenzofuran-4-yl)methyl)amino)-7-methyl-4,5-dihydro-3-thia-2,6,11,12a-tetraazabenzo[4,5]cycloocta[1,2,3-cd]indene 3,3-dioxide] |  | 1.85 nM |  | IC50 [3, 7]: 0.058 nM |
| CS(=O)(=O)c1ccc(-c2cnc(NCc3c(F)ccc4c3CCO4)n3cnc(S(C)(=O)=O)c23)cc1 [compound 100, N-((5-fluoro-2,3-dihydrobenzofuran-4-yl)methyl)-1-(methylsulfonyl)-8-(4 (methylsulfonyl)phenyl)imidazo[1,5-c]pyrimidin-5-amine] |  |  | 0.26 nM | IC50 [3, 9]: 1.05 nM |
| Cc1ncccc1-c1cnc(NCc2c(F)ccc3c2CCO3)n2cnc(S(C)(=O)=O)c12 [compound 101, N-((5-fluoro-2,3-dihydrobenzofuran-4-yl)methyl)-8-(2-methylpyridin-3-yl)-1-(methylsulfonyl)imidazo[1,5-c]pyrimidin-5-amine] |  |  | 5.59 nM | IC50 [3, 9]: 1.76 nM |
| CS(=O)(=O)c1ncn2c(NCc3c(F)ccc4c3CCO4)ncc(-c3ccc(F)cc3)c12 [compound 104, N-((5-fluoro-2,3-dihydrobenzofuran-4-yl)methyl)-8-(4-fluorophenyl)-1 (methylsulfonyl)imidazo[1,5-c]pyrimidin-5-amine] | 0.59 nM |  | 8.1 nM |  |
| Cn1cc(-c2cnc(NCc3c(F)ccc4c3CCO4)n3cnc(S(C)(=O)=O)c23)cn1 [compound 106, N-((5-fluoro-2,3-dihydrobenzofuran-4-yl)methyl)-8-(1-methyl-1H-pyrazol-4-yl)-1-(methylsulfonyl)imidazo[1,5-c]pyrimidin-5-amine] | 0.556 nM |  | 10.6 nM |  |
| CS(=O)(=O)c1ncn2c(NCc3c(F)ccc4c3CCO4)ncc(-c3ccc(C(F)F)nc3)c12 [compound 107, 8-(6-(difluoromethyl)pyridin-3-yl)-N-((5-fluoro-2,3-dihydrobenzofuran-4-yl)methyl)-1-(methylsulfonyl)imidazo[1,5-c]pyrimidin-5-amine] |  |  | 2.84 nM | IC50 [1]: 0.215 nM |
| Cc1ccc(-c2cnc(NCc3c(F)ccc4c3CCO4)n3cnc(S(C)(=O)=O)c23)c(C)n1 [compound 108, 8-(2,6-dimethylpyridin-3-yl)-N-((5-fluoro-2,3-dihydrobenzofuran-4-yl)methyl)-1-(methylsulfonyl)imidazo[1,5-c]pyrimidin-5-amine] | 0.421 nM |  | 6.89 nM |  |
| Cc1nc(C(F)(F)F)ccc1-c1cnc(NCc2c(F)ccc3c2CCO3)n2cnc(S(C)(=O)=O)c12 [compound 109, N-((5-fluoro-2,3-dihydrobenzofuran-4-yl)methyl)-8-(2-methyl-6-(trifluoromethyl)pyridin-3-yl)-1-(methylsulfonyl)imidazo[1,5-c]pyrimidin-5-amine] | 0.53 nM |  | 10.9 nM |  |
| Cc1cc(S(C)(=O)=O)ccc1-c1cnc(NCc2c(F)ccc3c2CCO3)n2cnc(S(C)(=O)=O)c12 [compound 110, N-((5-fluoro-2,3-dihydrobenzofuran-4-yl)methyl)-8-(2-methyl-4-(methylsulfonyl)phenyl)-1-(methylsulfonyl)imidazo[1,5-c]pyrimidin-5-amine] | 0.47 nM |  | 3.93 nM |  |
| CS(=O)(=O)c1ncn2c(NCc3c(F)ccc4c3CCO4)ncc(-c3ccc(C4CC4)nc3)c12 [compound 111, 8-(6-cyclopropylpyridin-3-yl)-N-((5-fluoro-2,3-dihydrobenzofuran-4-yl)methyl)-1-(methylsulfonyl)imidazo[1,5-c]pyrimidin-5-amine] | 0.34 nM |  | 1.42 nM |  |
| CS(=O)(=O)c1ccc(-c2cnc(NCc3c(F)ccc4c3CCO4)n3cnc(C(F)(F)F)c23)cc1 [compound 112, N-((5-fluoro-2,3-dihydrobenzofuran-4-yl)methyl)-8-(4-(methylsulfonyl)phenyl)-1-(trifluoromethyl)imidazo[1,5-c]pyrimidin-5-amine] | 0.83 nM | 20.3 nM |  |  |
| Fc1ccc2c(c1CNc1ncc(-c3ccc(C(F)(F)F)cc3)c3c(C(F)(F)F)ncn13)CCO2 [compound 113, N-((5-fluoro-2,3-dihydrobenzofuran-4-yl)methyl)-1-(trifluoromethyl)-8-(4-(trifluoromethyl)phenyl)imidazo[1,5-c]pyrimidin-5-amine] | 0.98 nM | > 100 nM |  |  |
| Fc1ccc(-c2cnc(NCc3c(F)ccc4c3CCO4)n3cnc(C(F)(F)F)c23)cc1 [compound 114, N-((5-fluoro-2,3-dihydrobenzofuran-4-yl)methyl)-8-(4-fluorophenyl)-1-(trifluoromethyl)imidazo[1,5-c]pyrimidin-5-amine] | 1.48 nM | > 100 nM |  |  |
| Cc1ccc(-c2cnc(NCc3c(F)ccc4c3CCO4)n3cnc(C(F)(F)F)c23)c(C)n1 [compound 115, 8-(2,6-dimethylpyridin-3-yl)-N-((5-fluoro-2,3-dihydrobenzofuran-4-yl)methyl)-1-(trifluoromethyl)imidazo[1,5-c]pyrimidin-5-amine] | 2.35 nM | 50.1 nM |  |  |
| Fc1ccc2c(c1CNc1ncc(-c3ccc(C(F)(F)F)nc3)c3c(C(F)(F)F)ncn13)CCO2 [compound 116, N-((5-fluoro-2,3-dihydrobenzofuran-4-yl)methyl)-1-(trifluoromethyl)-8-(6-(trifluoromethyl)pyridin-3-yl)imidazo[1,5-c]pyrimidin-5-amine] | 1.98 nM | > 100 nM |  |  |
| CP(C)(=O)c1ncn2c(NCc3c(F)ccc4c3CCO4)ncc(-c3ccc(C(F)F)nc3)c12 [compound 117, (8-(6-(difluoromethyl)pyridin-3-yl)-5-(((5-fluoro-2,3-dihydrobenzofuran-4-yl)methyl)amino)imidazo[1,5-c]pyrimidin-1-yl)dimethylphosphine oxide] | 0.19 nM | 19.5 nM |  |  |
| CP(C)(=O)c1ncn2c(NCc3c(F)ccc4c3CCO4)ncc(-c3ccc(F)cc3)c12 [compound 118, (5-(((5-fluoro-2,3-dihydrobenzofuran-4-yl)methyl)amino)-8-(4-fluorophenyl)imidazo[1,5-c]pyrimidin-1-yl)dimethylphosphine oxide] | 0.27 nM | 28.4 nM |  |  |

From patent publication US12145944B2, “Imidazopyrimidines as EED inhibitors and the use thereof” (THE REGENTS OF THE UNIVERSITY OF MICHIGAN, priority 2019, dated 2024)
